Reference: patent publication US4394504A, “Cephalosporin derivatives” (American Home Products Corporation, priority 1981, dated 1983)
Values after ≈ are worked out from the molar mass of the structure shown. Where two headings read alike, the source gives them in different places.

Assays:
[1] = test system: Bacillus subtilis (BA SU), strain 6633; assay: Agar serial dilution MIC, Bacillus subtilis 6633; type: cell-based
Excerpt: (§1) The antibacterial compounds of this invention are effective against gram-positive and gram-negative test organisms at inhibitory concentrations at or below 250 micrograms per milliliter using the well-known and scientifically accepted agar serial dilution technique. Thus, the antibacterial agents of this invention are useful in the fields of comparative pharmacology and microbiology and may be used in the treatment of infections amenable to treatment with cephalosporins and penicillins such as bovine mastitis as well as in the eradication of bacterial colonies outside the animal host.
(§2) The following examples are presented for purposes of illustration and should not be construed as limitations upon the true scope of this invention.
BA SU--Bacillus subtilis, […]

[2] = test system: Staphylococcus aureus (ST AU), strain 6538P; assay: Agar serial dilution MIC, Staphylococcus aureus 6538P; type: cell-based; conditions: ST AU 6538P
Excerpt: as §1, §2
(§3) ST AU--Staphylococcus aureus, […]

[3] = test system: Staphylococcus aureus (ST AU), strain SMITH; assay: Agar serial dilution MIC, Staphylococcus aureus SMITH; type: cell-based
Excerpt: as §1, §2, §3

[4] = test system: Staphylococcus aureus (ST AU), strain CHP; assay: Agar serial dilution MIC, Staphylococcus aureus CHP; type: cell-based
Excerpt: as §1, §2, §3

[5] = test system: Staphylococcus aureus (ST AU), strain 53-180; assay: Agar serial dilution MIC, Staphylococcus aureus 53-180; type: cell-based
Excerpt: as §1, §2, §3

[6] = test system: Escherichia coli (ES CO), strain 9637; assay: Agar serial dilution MIC, Escherichia coli 9637; type: cell-based; conditions: ES CO 9637
Excerpt: as §1, §2

[7] = test system: Enterobacter cloacae (EN CL), strain 65-1; assay: Agar serial dilution MIC, Enterobacter cloacae 65-1; type: cell-based; conditions: EN CL 65-1
Excerpt: as §1, §2
EN CL--Enterobacter cloacae, […]

[8] = test system: Salmonella paratyphi (SA PA), strain 11737; assay: Agar serial dilution MIC, Salmonella paratyphi 11737; type: cell-based; conditions: Salmonella enterica
Excerpt: as §1, §2
SA PA--Salmonella paratyphi, […]

[9] = test system: Enterobacter aerogenes (EN AE), strain 13048; assay: Agar serial dilution MIC, Enterobacter aerogenes 13048; type: cell-based; conditions: Klebsiella aerogenes, EN AE 13048
Excerpt: as §1, §2
EN AE--Enterobacter aerogenes, […]

[10] = test system: Klebsiella pneumoniae (KL PN), strain 10031; assay: Agar serial dilution MIC, Klebsiella pneumoniae 10031; type: cell-based; conditions: KL PN 10031
Excerpt: as §1, §2
KL PN--Klebsiella pneumoniae, […]

[11] = test system: Proteus vulgaris (PR VU), strain 6896; assay: Agar serial dilution MIC, Proteus vulgaris 6896; type: cell-based
Excerpt: as §1, §2

[12] = test system: Proteus mirablis (PR MI), strain 9921; assay: Agar serial dilution MIC, Proteus mirablis 9921; type: cell-based
Excerpt: as §1, §2

[13] = test system: Bordetella brochiseptica (BO BR), strain 4617; assay: Agar serial dilution MIC, Bordetella brochiseptica 4617; type: cell-based; conditions: BO BR 4617
Excerpt: as §1, §2
BO BR--Bordetella brochiseptica, […]

AC CA, strain 9955 = assay: Agar serial dilution MIC, AC CA 9955; type: cell-based
Excerpt: as §1, §2

[14] = test system: Bacillus subtilis (BA SU), strain 6633; assay: Microdilution tube dilution assay MIC, Bacillus subtilis 6633; type: cell-based
Excerpt: as §2
BA SU--Bacillus subtilis,
(§4) The product of Example 18 was reexamined by the microdilution method of tube dilution assay employing Mueller Hinton Broth whereby standardized cultures were introduced into serially diluted antibiotic from Example 18.

[15] = test system: Staphylococcus aureus (ST AU), strain 209P; assay: Microdilution tube dilution assay MIC, Staphylococcus aureus 209P; type: cell-based
Excerpt: as §2
(§5) ST AU--Staphylococcus aureus,
as §4

[16] = test system: Staphylococcus aureus (ST AU), strain SMITH; assay: Microdilution tube dilution assay MIC, Staphylococcus aureus SMITH; type: cell-based; conditions: Mueller Hinton Broth
Excerpt: as §2, §5, §4

[17] = test system: Staphylococcus aureus (ST AU), strain CHP; assay: Microdilution tube dilution assay MIC, Staphylococcus aureus CHP; type: cell-based; conditions: Mueller Hinton Broth
Excerpt: as §2, §5, §4

[18] = test system: Staphylococcus aureus (ST AU), strain 53-180; assay: Microdilution tube dilution assay MIC, Staphylococcus aureus 53-180; type: cell-based; conditions: Mueller Hinton Broth, ST AU 53-180
Excerpt: as §2, §5, §4

[19] = test system: Klebsiella pneumoniae (KL PN), strain 10031; assay: Microdilution tube dilution assay MIC, Klebsiella pneumoniae 10031; type: cell-based; conditions: Mueller Hinton Broth, KL PN 10031
Excerpt: as §2
KL PN--Klebsiella pneumoniae,
as §4

[20] = test system: Escherichia coli (ES CO), strain 9637; assay: Microdilution tube dilution assay MIC, Escherichia coli 9637; type: cell-based; conditions: Mueller Hinton Broth, ES CO 9637
Excerpt: as §2, §4

[21] = test system: Salmonella paratyphi (SA PA), strain 11737; assay: Microdilution tube dilution assay MIC, Salmonella paratyphi 11737; type: cell-based; conditions: Salmonella enterica
[22] = test system: Enterobacter aerogenes (EN AE), strain 13048; assay: Microdilution tube dilution assay MIC, Enterobacter aerogenes 13048; type: cell-based; conditions: Klebsiella aerogenes
Excerpt: as §2
EN AE--Enterobacter aerogenes,
as §4

[23] = test system: Bordetella brochiseptica (BO BR), strain 4617; assay: Microdilution tube dilution assay MIC, Bordetella brochiseptica 4617; type: cell-based; conditions: Mueller Hinton Broth, BO BR 4617
Excerpt: as §2
BO BR--Bordetella brochiseptica,
as §4

[24] = test system: Proteus vulgaris (PR VU), strain 6896; assay: Microdilution tube dilution assay MIC, Proteus vulgaris 6896; type: cell-based; conditions: Mueller Hinton Broth, PR VU 6896
Excerpt: as §2, §4

[25] = test system: Proteus mirablis (PR MI), strain 9921; assay: Microdilution tube dilution assay MIC, Proteus mirablis 9921; type: cell-based
Excerpt: as §2, §4

[26] = test system: Herellea species (HE SP), strain 9955; assay: Microdilution tube dilution assay MIC, Herellea species 9955; type: cell-based; conditions: Mueller Hinton Broth, HE SP 9955
Excerpt: as §2, §4

[27] = test system: Pseudomonas aeruginosa (PS AE), strain 10145; assay: Microdilution tube dilution assay MIC, Pseudomonas aeruginosa 10145; type: cell-based; conditions: Mueller Hinton Broth, PS AE 10145
Excerpt: as §2
PS AE--Pseudomonas aeruginosa,
as §4

ES IN, strain 65-1 = assay: Microdilution tube dilution assay MIC, ES IN 65-1; type: cell-based, Escherichia intermedia; conditions: Citrobacter intermedius
Excerpt: as §2
ES IM--Escherichia intermedia.
as §4

SMILES | MIC [2] | MIC [6] | MIC [7] | MIC [8] | MIC [9] | MIC [10] | MIC [16] | MIC [17] | MIC [18] | MIC [19] | MIC [20] | MIC [21] | MIC [23] | MIC [24] | MIC [26] | MIC [27] | other results
CO/N=C(/C(=O)NC1C(=O)N2C(C(=O)O)=C(COC(C)=O)CSC12)c1cc(N)no1 (stereo not drawn) [Example 15, 3-Acetoxymethyl-7-[2-(3-Amino-5-Isoxazolyl)-2-anti-Methoxyiminoacetamido]-Ceph-3-em-4-Carboxylic Acid] | 7.81 µg/mL (≈ 17.8 µM) | 15.6 µg/mL (≈ 35.5 µM) | 62.5 µg/mL (≈ 142 µM) | 15.6 µg/mL (≈ 35.5 µM) | 62.5 µg/mL (≈ 142 µM) | 15.6 µg/mL (≈ 35.5 µM) | – | – | – | – | – | – | – | – | – | – | MIC ([1]; agar serial dilution, BA SU 6633, read-out: MIC): 7.81 µg/mL (≈ 17.8 µM); MIC ([3]; agar serial dilution, ST AU SMITH, read-out: MIC): 3.9 µg/mL (≈ 8.88 µM); MIC [4]: 15.6 µg/mL (≈ 35.5 µM); MIC [5]: 15.6 µg/mL (≈ 35.5 µM); MIC ([11]; agar serial dilution, PR VU 6896, read-out: MIC): 31.3 µg/mL (≈ 71.2 µM); MIC ([12]; agar serial dilution, PR MI 9921, read-out: MIC): 7.81 µg/mL (≈ 17.8 µM)
CO/N=C(\C(=O)NC1C(=O)N2C(C(=O)O)=C(COC(C)=O)CSC12)c1cc(N)no1 (stereo not drawn) [Example 18, 3-Acetoxymethyl-7-[2-(3-Amino-5-Isoxazolyl)-2-syn-Methoxy-Iminoacetamido]-Ceph-3-em-4-Carboxylic Acid] | 1.95 µg/mL (≈ 4.44 µM) | 0.488 µg/mL (≈ 1.11 µM) | 1.95 µg/mL (≈ 4.44 µM) | 0.488 µg/mL (≈ 1.11 µM) | 31.3 µg/mL (≈ 71.2 µM) | 0.488 µg/mL (≈ 1.11 µM) | 0.244 µg/mL (≈ 0.555 µM) | 3.9 µg/mL (≈ 8.88 µM) | 0.488 µg/mL (≈ 1.11 µM) | 15.2 ng/mL (≈ 0.0346 µM) | 0.122 µg/mL (≈ 0.278 µM) | 0.488 µg/mL (≈ 1.11 µM) | 125 µg/mL (≈ 284 µM) | 0.122 µg/mL (≈ 0.278 µM) | 62.5 µg/mL (≈ 142 µM) | 125 µg/mL (≈ 284 µM) | MIC [1]: 0.488 µg/mL (≈ 1.11 µM); MIC [3]: 0.488 µg/mL (≈ 1.11 µM); MIC ([4]; agar serial dilution, ST AU CHP, read-out: MIC): 7.81 µg/mL (≈ 17.8 µM); MIC ([5]; agar serial dilution, ST AU 53-180, read-out: MIC): 3.9 µg/mL (≈ 8.88 µM); MIC [13]: 250 µg/mL (≈ 569 µM); MIC [11]: 0.976 µg/mL (≈ 2.22 µM); MIC (AC CA, strain 9955): 125 µg/mL (≈ 284 µM); MIC [12]: 0.488 µg/mL (≈ 1.11 µM); MIC ([14]; microdilution, Mueller Hinton Broth, BA SU 6633, read-out: MIC): 1.95 µg/mL (≈ 4.44 µM); MIC ([15]; microdilution, Mueller Hinton Broth, ST AU 209P, read-out: MIC): 0.244 µg/mL (≈ 0.555 µM); MIC [22]: 0.976 µg/mL (≈ 2.22 µM); MIC ([25]; microdilution, Mueller Hinton Broth, PR MI 9921, read-out: MIC): 0.122 µg/mL (≈ 0.278 µM); MIC (ES IN, strain 65-1): 0.488 µg/mL (≈ 1.11 µM)
CO/N=C(\C(=O)N[C@@H]1C(=O)N2C(C(=O)O)=C(COC(C)=O)CS[C@H]12)c1csc(N)n1 [Cefotaxime, reference compound] | – | – | – | – | – | – | 0.244 µg/mL (≈ 0.536 µM) | 3.9 µg/mL (≈ 8.56 µM) | 0.976 µg/mL (≈ 2.14 µM) | 0.06 ng/mL (≈ 0.000132 µM) | 0.0038 µg/mL (≈ 0.00834 µM) | 0.0076 µg/mL (≈ 0.0167 µM) | 15.6 µg/mL (≈ 34.3 µM) | 0.00023 µg/mL (≈ 0.000505 µM) | 15.6 µg/mL (≈ 34.3 µM) | 3.9 µg/mL (≈ 8.56 µM) | MIC [14]: 0.488 µg/mL (≈ 1.07 µM); MIC ([15]; 209P): 0.488 µg/mL (≈ 1.07 µM); MIC ([22]; microdilution, Mueller Hinton Broth, EN AE 13048, read-out: MIC): 0.0152 µg/mL (≈ 0.0334 µM); MIC [25]: 0.0019 µg/mL (≈ 0.00417 µM); MIC (ES IN, strain 65-1; microdilution, Mueller Hinton Broth, ES IN 65-1, read-out: MIC): 0.0038 µg/mL (≈ 0.00834 µM)
